A value given as a limit tells only on which side of the number the result lay.

For `COc1ccccc1CN1CCN(CCCOc2ccc3c(C)cc(=O)[nH]c3c2)CC1`, the melting point (usually the temperature, or range, at which the solid turns liquid) fell in the range of 151 to 152 °C.

As to `Cc1cc(Br)cnc1CCCCn1nnc2cc(Cc3cccnc3)cnc21`, the melting point lay in the range of 114 to 115 °C.

The compound `N#CN1CCN(c2n[nH]c3ccccc23)CC1` yielded a melting point of 120 to 122 °C. `COc1cc(C(=O)N2CCC(CCN3CCC(C(=O)c4nc5ccccc5n4Cc4ccc(F)cc4)CC3)(c3ccccc3)C2)cc(OC)c1OC` (centres undefined) returned a melting point of 107 to 109 °C.

Take `CCOC(=O)C(C(=O)c1ccc(C#N)cc1)C1c2ccccc2Oc2ccccc21` (centres undefined): the melting point was determined as 141 °C. `Cn1c(-c2ccc(Br)cc2)cc2ccccc21` yielded a melting point of 114 to 115 °C. Compound `CCc1cc(OCc2ccc(-c3ccccc3-c3nnn(C(c4ccccc4)(c4ccccc4)c4ccccc4)n3)cc2)c2c(n1)CCN(C(C)=O)C2` registered a melting point of 97 to 98 °C. With `CN(C)c1ccc(NC(=O)NC2CCC2)c(C(=O)NCC2CCN(C(c3ccccc3)c3ccccc3)CC2)c1`, the melting point lay in the range of 210 to 212 °C. `CC(=O)NCC(C)(C)c1ccc2nc(-c3ccc(C)cc3)[nH]c2c1` yielded a melting point of 230 to 232 °C. For `Cc1nc2c3c(c(C(N)=O)cc2n1C)CCC(c1ccccc1)O3` (centres undefined) the value was 264 to 267 °C; for `COc1ccc2c(c1)-c1n[nH]c(-c3ccncc3)c1CCC2`, 200 to 201 °C; for `COc1ccc2c(c1)C(CC(=O)O)CCO2` (centres undefined), 80 to 83 °C.

`O=C(CCC#Cc1ccccn1)Nc1ccc(F)cc1`: the melting point was found to be 190 °C. For `COC(=O)c1ccc(CNC(=NC#N)NCCNC(=O)c2nc(Cl)c(N)nc2N)cc1`, the melting point was 190 to 195 °C.

As for `COC(=O)c1cc2c3ccccc3n(CC3CC3)c2s1`, the melting point fell in the range of 110 to 111 °C. `Cn1c(-c2ccccc2Cl)cc2ncccc2c1=O` had a melting point of 152 to 153 °C.

As for `CCOC1CCC2(CC1)NC(=O)C(c1cc(Br)ccc1C)=C2O` (centres undefined), the melting point amounted to 138 °C. On to `CO[C@H]1[C@H](N2CCCC2)c2cc(C#N)ccc2OC1(C)C` (relative stereo), for which the melting point fell in the range of 108 to 109 °C. For `Oc1c(Br)cc(-c2c3ccccc3c(I)c3sc4ccccc4c23)cc1Br` the value was 221 to 222 °C. In turn, `CC(C)(C)OC(=O)C1CC(c2ccc(N)cc2)CCN1` (centres undefined) showed a melting point of 114 to 116 °C.

In turn, `CC1=NN=C(c2ccc([N+](=O)[O-])c(C)c2)c2cc3c(cc2C1)OCO3` yielded a melting point of 189 to 194 °C. Regarding `CCOCc1nc2c(N)nc3ccccc3c2n1CCOCCNC(=O)Nc1ccccc1`, the melting point fell in the range of 183 to 186 °C. Consider `CCCOC(=O)n1cc2c(n1)NC(CCC)=C(C(=O)OCC)C2c1ccccc1Cl` (centres undefined), for which the melting point is 59 °C. The compound `COC(=O)C1CCC(=O)N1C(=O)Nc1ccccc1` (centres undefined) displayed a melting point of 91 to 92 °C.

`CN1C(=O)Cc2cc(C3=NNC(=O)C4CCC34)ccc21` (centres undefined) yielded a melting point of 256 to 259 °C.

As to `CN1CC(c2ccc(Cc3ccc(F)cc3)cn2)=C(O)C1=O`, the melting point fell in the range of 204 to 206 °C. Compound `Cc1nc2cccc(C)n2c(=O)c1CCN1CCC(c2c[nH]c3ccccc23)CC1` showed a melting point of 225 °C.

`O=[N+]([O-])c1ccccc1-c1cnoc1` came in with a melting point of 51 to 54 °C. For `CCCc1c(OCc2nc(N)c3nccnc3n2)ccc(C(C)=O)c1O` the value was 178 to 180 °C; for `O=C(NCCCCc1ccc(-c2ccc(=O)[nH]n2)cc1)c1cccnc1`, 190 to 191 °C; for `CCCCC(=O)OCCOCn1cnc2c(=O)[nH]c(N)nc21`, 215 to 217 °C.

`CCOCc1nc2c(N)nc3cc(-c4ccccc4)ccc3c2n1CC(C)(C)NS(C)(=O)=O` displayed a melting point of 239 to 242 °C. Take `COC(=O)/C=C/n1cnc2ccc(O)cc2c1=O`: the melting point lay in the range of 252 to 256 °C. For the compound `Cc1ccc(C)c2c1C(=O)N(CCl)S2(=O)=O`, the melting point lay within 107 to 108 °C. For `CN(C)CCc1cccc(OCCCN2C(=O)c3ccccc3C2=O)c1` the value was 59 to 60 °C; for `Nc1nc(-c2ccccc2Cl)nc(N2CCCCC2)n1`, 184 to 186 °C.

As to `O=[N+]([O-])c1cccc2c(Br)nccc12`, the melting point was in the range of 187 to 188 °C. Compound `O=C(O)CCCc1cc2cc(Cl)ccc2n1S(=O)(=O)c1ccc(N2CCOCC2)nc1` returned a melting point of 78 to 82 °C. Next, `COc1ccc(CNc2nc(N3CCC(C(=O)O)CC3)nc3sc(Cl)cc23)cc1Cl`: greater than 250 °C; `O=C(NC(NC(=S)Nc1cccnc1)C(Cl)(Cl)Cl)c1ccc(I)cc1` (centres undefined): 197 to 199 °C.

Take `O=C(O)CCCc1cc2nc(Cl)ccc2n1S(=O)(=O)c1cccc(Cl)c1`: the melting point came to 174 °C.

For the compound `Cc1cccc(C)c1NCC(C)Nc1c(C)cccc1C` (centres undefined), the melting point fell in the range of 52 to 55 °C.

The compound `CCCc1c(OCCCOc2cc(NC(=O)C(=O)O)c(C)cc2Cl)ccc(C(C)=O)c1O` gave a melting point of 188 to 189 °C.

For `COc1ccc(S(=O)(=O)C2(C(=O)O)CCN(C(C)(C)C)CC2)cc1`, the melting point came out at 204 °C. `Oc1c(C23CC4CC(CC(C4)C2)C3)ccc2ccccc12` displayed a melting point of 209 to 210 °C. Consider `CNC(=C[N+](=O)[O-])NCCN1CCC(C(=O)c2ccc(F)cc2)CC1`, for which the melting point was in the range of 157 to 159 °C. `CC(=O)N[C@@H](CS)C(=O)NCCSC(=O)c1ccccc1`: the melting point was 128 to 130 °C. As for `C#CCOC(C(=O)NCCc1ccc(O)c(OC)c1)c1ccc(Cl)cc1` (centres undefined), the melting point was 93 to 95 °C.

Regarding `O=C1OC(=O)c2nc3ccccc3cc21`, the melting point was 225 to 228 °C.

For the compound `Cc1cc(Oc2c(Cl)cc(C(F)(F)F)cc2Cl)nn1C(=O)NCCCl`, the melting point was in the range of 116 to 118 °C. `O=C1CC(C(O)(c2ccc(F)cc2)c2ccc(F)cc2)CN1Cc1ccccc1` (centres undefined): the melting point is 158 to 160 °C.

As for `O=C1c2ccccc2C(O)N1CCCCCCl` (centres undefined), the melting point is 77 to 79 °C. `CSCc1c(N)c(C#N)cc(F)c1F`: the melting point was 109 to 110 °C. In turn, `COC(=O)C=C1NCC(C)OC1=O` (centres undefined) came in with a melting point of 98 to 101 °C.

As to `COc1ccc(-c2ccc(C(=O)Nc3cc4ncc(CN5CCCC5)cc4cc3F)cc2)cc1`, the melting point was in the range of 184 to 186 °C.

Regarding `CCOC(=O)Nc1cc(OC2CCCC2)c(Cl)cc1F`, the melting point was 92.8 to 97.8 °C. `CN(c1ccc(O)cc1)c1nc2ccc(Br)cc2o1` yielded a melting point of 195 °C. Take `O=C(c1cc(Br)ccc1[N+](=O)[O-])C(Br)C(Br)c1cccc(Br)c1` (centres undefined): the melting point was 153 to 155 °C. In turn, `Cc1nc2c([N+](=O)[O-])cc(Br)cc2n1COCc1ccccc1` showed a melting point of 106 to 109 °C. `Cc1ccccc1C(=O)Nc1ccc(C(=O)N2CCc3cnoc3-c3ccccc32)cc1` registered a melting point of 257 to 260 °C. `Fc1ccc(-c2nc(SC(F)(F)C(F)F)[nH]c2-c2cccs2)cc1` gave a melting point of 164 to 168 °C. The compound `CN(C)C=C(Cc1ccccc1)C(=O)c1cccnc1Cl` showed a melting point of 115 to 120 °C. For `Cn1ncc2c1-c1c(S(C)(=O)=O)sc(S(=O)(=O)Cl)c1CC2` the value was 81 to 82 °C; for `Cc1cccc2nc(NC(=O)c3ccc(C(C)(C)C)cc3)cn12`, 204 to 205 °C.

These data come from a melting point compilation (Tetko et al.; mined from patent text by program, amines drawn as free bases though some values may be those of a salt).
